# Results: the NIST ThermoML archive (doi:10.1016/j.jct.2019.105880)
# Numbers after ± are expanded uncertainties.
# Assay: wn = mass fraction of the nth substance listed
# Details: 100 kPa, Liquid; for viscosity: Falling or rolling sphere viscometry; for speed of sound: Frequency=3 MHz, Single path-length method; for mass density: Vibrating tube method
compound,measurement,setting,value
CCCO [propan-1-ol] + O,viscosity,"288.15 K, w1 = 0.1",1.82 ± 0.14 mPa·s
same,viscosity,"288.15 K, w1 = 0.2",2.723 ± 0.18 mPa·s
same,viscosity,"288.15 K, w1 = 0.3",3.208 ± 0.2 mPa·s
same,viscosity,"288.15 K, w1 = 0.4",3.575 ± 0.22 mPa·s
same,speed of sound,"288.15 K, w1 = 0.1",1564.4 ± 3.1 m/s
same,speed of sound,"288.15 K, w1 = 0.2",1587.4 ± 2.5 m/s
same,speed of sound,"288.15 K, w1 = 0.3",1533.5 ± 5.5 m/s
same,speed of sound,"288.15 K, w1 = 0.4",1485.7 ± 5.2 m/s
same,mass density,"288.15 K, w1 = 0.1",985.245 ± 1.4 kg/m3
same,mass density,"288.15 K, w1 = 0.2",971.452 ± 1.6 kg/m3
same,mass density,"288.15 K, w1 = 0.3",954.251 ± 1.9 kg/m3
same,mass density,"288.15 K, w1 = 0.4",934.617 ± 2 kg/m3
same,viscosity,"293.15 K, w1 = 0.1",1.545 ± 0.12 mPa·s
same,viscosity,"293.15 K, w1 = 0.2",2.232 ± 0.14 mPa·s
same,viscosity,"293.15 K, w1 = 0.3",2.618 ± 0.16 mPa·s
same,viscosity,"293.15 K, w1 = 0.4",2.92 ± 0.18 mPa·s
same,speed of sound,"293.15 K, w1 = 0.1",1570.1 ± 2.3 m/s
same,speed of sound,"293.15 K, w1 = 0.2",1581.6 ± 3 m/s
same,speed of sound,"293.15 K, w1 = 0.3",1526.5 ± 5.6 m/s
same,speed of sound,"293.15 K, w1 = 0.4",1477.2 ± 5.3 m/s
same,mass density,"293.15 K, w1 = 0.1",983.869 ± 1.5 kg/m3
same,mass density,"293.15 K, w1 = 0.2",969.02 ± 1.7 kg/m3
same,mass density,"293.15 K, w1 = 0.3",950.883 ± 1.9 kg/m3
same,mass density,"293.15 K, w1 = 0.4",931.255 ± 2 kg/m3
same,viscosity,"298.15 K, w1 = 0.1",1.333 ± 0.095 mPa·s
same,viscosity,"298.15 K, w1 = 0.2",1.852 ± 0.12 mPa·s
same,viscosity,"298.15 K, w1 = 0.3",2.174 ± 0.14 mPa·s
same,viscosity,"298.15 K, w1 = 0.4",2.436 ± 0.15 mPa·s
same,speed of sound,"298.15 K, w1 = 0.1",1574.3 ± 2 m/s
same,speed of sound,"298.15 K, w1 = 0.2",1575.5 ± 3.4 m/s
same,speed of sound,"298.15 K, w1 = 0.3",1519.6 ± 5.7 m/s
same,speed of sound,"298.15 K, w1 = 0.4",1468 ± 5.5 m/s
same,mass density,"298.15 K, w1 = 0.1",982.336 ± 1.6 kg/m3
same,mass density,"298.15 K, w1 = 0.2",966.338 ± 1.8 kg/m3
same,mass density,"298.15 K, w1 = 0.3",948.039 ± 2 kg/m3
same,mass density,"298.15 K, w1 = 0.4",927.818 ± 2.1 kg/m3
same,viscosity,"303.15 K, w1 = 0.1",1.156 ± 0.081 mPa·s
same,viscosity,"303.15 K, w1 = 0.2",1.567 ± 0.1 mPa·s
same,viscosity,"303.15 K, w1 = 0.3",1.841 ± 0.11 mPa·s
same,viscosity,"303.15 K, w1 = 0.4",2.056 ± 0.13 mPa·s
same,speed of sound,"303.15 K, w1 = 0.1",1577.4 ± 2.2 m/s
same,speed of sound,"303.15 K, w1 = 0.2",1569.5 ± 3.8 m/s
same,speed of sound,"303.15 K, w1 = 0.3",1512.6 ± 5.9 m/s
same,speed of sound,"303.15 K, w1 = 0.4",1458.6 ± 5.8 m/s
same,mass density,"303.15 K, w1 = 0.1",980.428 ± 1.7 kg/m3
same,mass density,"303.15 K, w1 = 0.2",963.667 ± 1.8 kg/m3
same,mass density,"303.15 K, w1 = 0.3",945.132 ± 2 kg/m3
same,mass density,"303.15 K, w1 = 0.4",924.386 ± 2.1 kg/m3
CC(C)O [propan-2-ol] + O,viscosity,"288.15 K, w1 = 0.1",1.936 ± 0.16 mPa·s
same,viscosity,"288.15 K, w1 = 0.2",3.087 ± 0.21 mPa·s
same,viscosity,"288.15 K, w1 = 0.3",4.014 ± 0.26 mPa·s
same,speed of sound,"288.15 K, w1 = 0.1",1573.7 ± 6.8 m/s
same,speed of sound,"288.15 K, w1 = 0.2",1638.6 ± 2.1 m/s
same,speed of sound,"288.15 K, w1 = 0.3",1586.9 ± 5.5 m/s
same,mass density,"288.15 K, w1 = 0.1",983.401 ± 1.2 kg/m3
same,mass density,"288.15 K, w1 = 0.2",971.675 ± 1.5 kg/m3
same,mass density,"288.15 K, w1 = 0.3",954.62 ± 1.8 kg/m3
same,viscosity,"293.15 K, w1 = 0.1",1.633 ± 0.13 mPa·s
same,viscosity,"293.15 K, w1 = 0.2",2.485 ± 0.17 mPa·s
same,viscosity,"293.15 K, w1 = 0.3",3.172 ± 0.21 mPa·s
same,speed of sound,"293.15 K, w1 = 0.1",1578.9 ± 5.5 m/s
same,speed of sound,"293.15 K, w1 = 0.2",1629.4 ± 2 m/s
same,speed of sound,"293.15 K, w1 = 0.3",1574.7 ± 5.8 m/s
same,mass density,"293.15 K, w1 = 0.1",982.158 ± 1.3 kg/m3
same,mass density,"293.15 K, w1 = 0.2",969.345 ± 1.6 kg/m3
same,mass density,"293.15 K, w1 = 0.3",951.686 ± 1.8 kg/m3
same,viscosity,"298.15 K, w1 = 0.1",1.395 ± 0.11 mPa·s
same,viscosity,"298.15 K, w1 = 0.2",2.045 ± 0.14 mPa·s
same,viscosity,"298.15 K, w1 = 0.3",2.555 ± 0.16 mPa·s
same,speed of sound,"298.15 K, w1 = 0.1",1582.9 ± 4.3 m/s
same,speed of sound,"298.15 K, w1 = 0.2",1620.2 ± 2.3 m/s
same,speed of sound,"298.15 K, w1 = 0.3",1562.8 ± 6.1 m/s
same,mass density,"298.15 K, w1 = 0.1",980.642 ± 1.4 kg/m3
same,mass density,"298.15 K, w1 = 0.2",966.771 ± 1.7 kg/m3
same,mass density,"298.15 K, w1 = 0.3",948.106 ± 1.9 kg/m3
same,viscosity,"303.15 K, w1 = 0.1",1.208 ± 0.089 mPa·s
same,viscosity,"303.15 K, w1 = 0.2",1.71 ± 0.11 mPa·s
same,viscosity,"303.15 K, w1 = 0.3",2.105 ± 0.13 mPa·s
same,speed of sound,"303.15 K, w1 = 0.1",1585.7 ± 3.2 m/s
same,speed of sound,"303.15 K, w1 = 0.2",1611 ± 2.7 m/s
same,speed of sound,"303.15 K, w1 = 0.3",1549.6 ± 6.5 m/s
same,mass density,"303.15 K, w1 = 0.1",978.882 ± 1.5 kg/m3
same,mass density,"303.15 K, w1 = 0.2",964.199 ± 1.7 kg/m3
same,mass density,"303.15 K, w1 = 0.3",945.121 ± 1.9 kg/m3
